This is an account of results in PubChem BioAssay (NCI).

Test systems include MDA-MB-468 breast; CCRF-CEM leukemia; HCC-2998 colon; HS 578T breast; NCI-H23 lung; OVCAR-5 ovarian; RXF 393 renal; SF-295 CNS; SF-539 CNS; SN12C renal; UACC-62 melanoma.
Common to all, as to assay: NCI tumour cell line growth inhibition, 48 h

Several values for one entry are separate records, joined by “and”; a condition that tells them apart may be missing. Equal values may be shown once.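 Assay format: 96-well plates, 48-hour exposure. GI50 marks 50% less growth. Definition used: TGI = concentration required for complete inhibition of growth.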

As for `C=CC12CCN(CC1)C(C(O)c1ccnc3ccc(OC)cc13)C2` (configuration not stated), in the assay with MDA-MB-468 breast, the GI50 was 57.4 µM and the TGI was greater than 100 µM.
Take `NC(=O)c1cc(I)ccc1NC(=O)/C=C/c1ccccc1`: in the assay with MDA-MB-468 breast, the GI50 is 0.732 µM and the TGI was found to be 47.1 µM.
For `COc1ccc(CNc2c3ccccc3nc3ccccc23)cc1F`, in that order: 1.86 µM and 4.81 µM.
For `COc1cc(/C=C2\CCCCC3=C2N=C2SC(C)=CN2C3c2cc(OC)c(OC)c(OC)c2)cc(OC)c1OC` (configuration not stated), in that order: 0.185 µM and greater than 100 µM.
For `O=C(Nc1nc(-c2c[nH]c3ccccc23)cs1)c1n[nH]c(=O)c2ccccc12`, in that order: 77.9 µM and greater than 100 µM.
Consider `C[C@H](CCOc1cccc(CC(=O)O)c1)N(Cc1cccc(C(F)(F)F)c1Cl)CC(c1ccccc1)c1ccccc1`, for which, in the assay on MDA-MB-468 breast, the GI50 is 6.73 µM and the TGI worked out at 24 µM.
For the molecule `COC(=O)/C=C/c1cc(OC(C)=O)c2c(c1)C(C(=O)OC)C(c1ccc(OC(C)=O)c(OC(C)=O)c1)O2` (configuration not stated), in the assay with MDA-MB-468 breast, the GI50 is 1.2 µM and the TGI stood at 17.8 µM.
The like results for `Cc1cccc(NC2=C(Cl)C(=O)c3nc(C)ccc3C2=O)c1` were, in that order, 1.27 µM and 2.89 µM.
For `C=C(C)[C@@H]1CC[C@]2(CN)CC[C@]3(C)[C@H](CC[C@@H]4[C@@]5(C)CCCNC(C)(C)[C@@H]5CC[C@]43C)[C@@H]12`, in that order: 1.75 µM and 3.52 µM.
For `CN(C)CCN1CCC(Cc2ccccc2)CC1`, in that order: greater than 80 µM and greater than 80 µM.
For the molecule `O=C(Nc1ncc(Cc2cccc(C(F)(F)F)c2)s1)c1ccc2c(c1)OCCO2`, in the assay on MDA-MB-468 breast, the GI50 was 0.251 µM.
As to `NC(N)=Nc1nc2ccccc2o1`, in the assay on MDA-MB-468 breast, the GI50 is greater than 100 µM and the TGI is greater than 100 µM.
Regarding `N#CC(I)CS(=O)(=O)c1ccccc1` (configuration not stated), in the assay with MDA-MB-468 breast, the GI50 is 3.55 µM and the TGI worked out at 14.1 µM.
For `COc1ccc(/C=C\c2cc(OC)c(OC)c(OC)c2)cc1OCC(=O)O`, in that order: 49.3 µM and greater than 100 µM.
For the molecule `Nc1nc(Cl)nc2c1ncn2C1CC(O)C(CO)O1` (configuration not stated), in the assay on MDA-MB-468 breast, the GI50 was 56.6 µM and the TGI is greater than 100 µM.
For `OC(c1cc2cc(Cl)ccc2c2cc(C(F)(F)F)ccc12)C1CCCCN1` (configuration not stated), in that order: 1.66 µM and 3.2 µM.
Take `Brc1ccc(/C=C/c2n(Cc3ccc4ccccc4c3)c3ccccc3[n+]2Cc2ccc3ccccc3c2)cc1`: the GI50 was 0.519 µM with CCRF-CEM leukemia; 1.49 µM with HCC-2998 colon; 1.48 µM with HS 578T breast; 1.34 µM in the assay with MDA-MB-468 breast; 1.33 µM with NCI-H23 lung; 1.35 µM in the assay with OVCAR-5 ovarian. The GI50 is 1.35 µM in the assay with RXF 393 renal; 1.4 µM in the assay on SF-295 CNS; 1.67 µM with SF-539 CNS; 1.64 µM in the assay on SN12C renal; 1.53 µM with UACC-62 melanoma. Moreover, the TGI is greater than 100 µM in the assay with CCRF-CEM leukemia; 2.83 µM in the assay on HCC-2998 colon; 3.87 µM in the assay with HS 578T breast; 2.73 µM in the assay on MDA-MB-468 breast; 2.68 µM in the assay with NCI-H23 lung; 2.66 µM in the assay with OVCAR-5 ovarian. Also, the TGI with RXF 393 renal amounted to 2.64 µM; with SF-295 CNS it was 2.73 µM; in the assay on SF-539 CNS, 3.04 µM; in the assay on SN12C renal, 3.03 µM; with UACC-62 melanoma, 2.9 µM.
Turning to `Nc1c(C(=O)Nc2ccccn2)sc2nc3c(cc12)C(=O)CCC3`, in the assay with MDA-MB-468 breast, the GI50 is 0.269 µM and the TGI turned out to be 67.3 µM.
The like results for `O=c1[nH]c(-c2cccc(F)c2)cc2cc(F)ccc12` were, in that order, 1.89 µM and greater than 100 µM.
For `CCCCCCn1c(-c2ccc(C(=O)O/N=C(\N)c3ccc4c(c3)OCO4)cc2)nc(-c2ccccc2)c1-c1ccccc1`, in that order: 2.11 µM and 5.62 µM.
As to `CCN(Cc1c(F)cccc1OC)c1ccc(CO)c(Cl)c1`, in the assay on MDA-MB-468 breast, the GI50 is 0.0285 µM and the TGI is 0.144 µM.
On to `CCn1cc(-c2ccnc3[nH]c(-c4cccc(CN(C)C)c4)cc23)c(-c2ccc(NC(=O)N(C)C)cc2)n1`, for which, in the assay with MDA-MB-468 breast, the GI50 was 0.0504 µM and 0.282 µM; the TGI was 16.7 µM and > 10 µM.
On to `CC[C@]1(O)C[C@H]2CN(CCc3c([nH]c4ccccc34)C(C(=O)OC)(c3cc4c(cc3OC)N(C)[C@H]3[C@@](O)(C(=O)OC)[C@H](OC(C)=O)[C@]5(CC)[C@@H]6C[C@@H]6CN6CC[C@]43[C@@H]65)C2)C1` (some centres not stated), for which, in the assay on MDA-MB-468 breast, the GI50 is 0.00285 µM and the TGI is 0.00917 µM.
The like results for `CCN(CCNS(C)(=O)=O)c1ccc(N)c(C)c1` were, in that order, 2.11 µM and 5.64 µM.
In the case of `COc1ccc(-c2cc(=O)oc3c4c(ccc23)OCN(Cc2ccc(F)cc2)C4)cc1`, in the assay on MDA-MB-468 breast, the GI50 is 15.7 µM and the TGI worked out at 36.3 µM.
The like results for `COc1nc(=O)n(C2C=CC(=O)O2)cc1F` (configuration not stated) were, in that order, 1.93 µM and 9.1 µM.
Turning to `NNc1ncnc2nc[nH]c12`, in the assay with MDA-MB-468 breast, the GI50 is 5.79 µM and the TGI was greater than 100 µM.
Take `CNCCCNc1ccnc2cc(Cl)ccc12`: in the assay on MDA-MB-468 breast, the GI50 is 12.7 µM and the TGI amounted to 33.5 µM.
Turning to `CCOC(=O)c1c(C)c2c(n1Cc1ccccc1)CSCC2=O`, in the assay on MDA-MB-468 breast, the GI50 is 23.3 µM and the TGI was greater than 100 µM.
